Data: patent EP4813986A1, “COMPOUND FOR REDUCING SERUM CONCENTRATION OF RBP4, AND USE” (Heronova Pharmaceuticals, LLC, priority 2023, dated 2025)
Where two headings read alike, the source gives them in different places.

Experiments:
[1] = target: T1, RBP4 (Mus musculus, UniProt Q00724); assay: Plasma RBP4 content detection test (ELISA) after single oral dose; format: in vivo, ICR male mice; settings: 5 mg/kg oral, maximum reduction within 5 to 24 hours vs 0-hour value
T1 construct: from tissue; host or cells: plasma of ICR male mice
Description: Test Method: ICR male mice aged 7 to 8 weeks were adaptively fed for 3 to 7 days and randomly divided into groups (4 mice per group), and fasted for 12 hours before the test. Orbital venous blood samples were collected and plasma was separated before administration on the test day (0-hour value as the initial content). Then, test compounds at a dose of 1 mg/kg or 5 mg/kg were orally administered (vehicle: 5% DMSO + 10% cyclodextrin), and vehicle (5% DMSO + 10% cyclodextrin) was orally administered as a control group. Orbital venous blood samples were collected and plasma was separated at 5, 8, 10, 12, and 24 hours after compound administration. The RBP4 content in plasma samples was detected using Mouse RBP4 (Retinol Binding Protein 4, Plasma) ELISA Kit (immunoway, KE1574), the reduction rate was calculated, and the maximum reduction rate within 5 to 24 hours was selected. Reduction rate of RBP4 content in mouse plasma at different sampling time points = (Initial RBP4 content - RBP4 content at sampling point) / Initial RBP4 content. Table 2 Plasma RBP4 Reduction Levels of Different Compounds

[2] = Pharmacokinetic test, single oral dose, plasma LC-MS/MS; format: in vivo; settings: mouse, male ICR mice; for half-life: read-out: half-life T1/2 (converted); for Cmax: read-out: peak concentration Cmax; for Tmax: read-out: peak time Tmax
Description: Test Method: Three ICR mice (male) were used for each compound, with five groups in total. Mice were treated with a single oral dose of 10 mg/kg or 5 mg/kg. For each mouse, blood samples were collected at 0.25, 0.5, 1, 2, 4, and 8 hours after administration. Whole blood samples were placed in test tubes containing EDTA-K2, inverted up and down several times, and then centrifuged at 6000 rpm, 4°C for 15 minutes to obtain plasma. The concentration of the compound in plasma samples was determined using the LC-MS/MS method. Table 4 Pharmacokinetic Results of Different Compounds

[3] = in vitro; settings: microsomes, pH 7.4
Description: Phosphate buffer preparation: Weigh 7.098 g of disodium hydrogen phosphate, add 500 mL of pure water and dissolve by ultrasonication to obtain a disodium hydrogen phosphate solution. Weigh 3.400 g of potassium dihydrogen phosphate, add 250 mL of pure water and dissolve by ultrasonication to obtain a potassium dihydrogen phosphate solution. The disodium hydrogen phosphate solution and potassium dihydrogen phosphate solution were mixed and adjusted to pH 7.4+0.2.
10 mM NADPH preparation: Weigh an appropriate amount of NADPH (reduced coenzyme II), freshly prepare a 10 mM working solution with phosphate buffer, and the final concentration is 1 mM.
Incubation system preparation: Prepare the suspension into the incubation plate according to Table 5, and pre-incubate in a 37°C water bath for 10 min. Table 5 Incubation System Preparation
2 µL of positive control or test compound working solution was added to 358 µL of the incubation system, mixed uniformly by vortexing, and all samples were prepared in duplicate. 40 µL of 10 mM NADPH was added to the system, mixed uniformly by low-speed vortexing, and the reaction timing was started. […] Centrifuge at 4700 rpm, 4°C for 15 minutes to precipitate proteins. Transfer 100 µL of the supernatant to the sample plate, add 100 µL of pure water and mix well for UPLC-MS/MS analysis. Table 6 Liver Microsome Stability Results

[4] = in vivo, single oral dose 10 mg/kg

Row | Compound | Maximum Plasma RBP4 Reduction Rate (5 mg/kg dose) [1] [%] | AUC(0-t) [2, 4] [ng·h/mL] | half-life [2, 4] [min] | Cmax [2, 4] [ng/mL] | Tmax [2, 4] [min] | half-life at 1 µM ([3]; human) [min] | microsomal CLint at 1 µM ([3]; human) [µL/min/mg] | half-life at 1 µM ([3]; mouse) [min] | microsomal CLint at 1 µM ([3]; mouse) [µL/min/mg] | AUC(0-t) ([2]; single oral dose 10 mg/kg) [ng·h/mL] | half-life ([2]; single oral dose 10 mg/kg) [min] | Cmax ([2]; single oral dose 10 mg/kg) [ng/mL] | Tmax ([2]; single oral dose 10 mg/kg) [min] | AUC(0-t) ([2]; single oral dose 5 mg/kg) [ng·h/mL] | half-life ([2]; single oral dose 5 mg/kg) [min] | Cmax ([2]; single oral dose 5 mg/kg) [ng/mL] | Tmax ([2]; single oral dose 5 mg/kg) [min]
1 | CC(=O)N1CCc2c(C(=O)N3CC=C(c4ccc(F)c(F)c4C(F)(F)F)CC3)n[nH]c2C1 [Compound 1] | 41 | 2460 | 167 | 1240 | 30 | > 180 | < 7.44 | 45.9 | 30.2 |  |  |  |  |  |  |  | 
2 | CC(=O)N1CCc2c(C(=O)N3CC=C(c4cccc(F)c4C(F)(F)F)CC3)n[nH]c2C1 [Compound 2] |  |  |  |  |  | 94.4 | 14.7 | 18.8 | 73.6 |  |  |  |  |  |  |  | 
3 | COCCN1CCc2c(C(=O)N3CC=C(c4cccc(F)c4C(F)(F)F)CC3)n[nH]c2C1 [Compound 3] |  |  |  |  |  | 18.7 | 74 | 26.3 | 52.7 | 119 | 442 | 159 | 30 |  |  |  | 
4 | COCC(=O)N1CCc2c(C(=O)N3CC=C(c4cccc(F)c4C(F)(F)F)CC3)n[nH]c2C1 [Compound 6] |  |  |  |  |  | 63 | 22 | 9.46 | 146 | 383 | 230 | 285 | 30 |  |  |  | 
5 | COCC(=O)N1CCc2c(C(=O)N3CC=C(c4ccc(F)c(F)c4C(F)(F)F)CC3)n[nH]c2C1 [Compound 7] | 64 |  |  |  |  | 103 | 13.4 | 15.6 | 89 | 1530 | 89.4 | 1050 | 30 |  |  |  | 
6 | [2H]C([2H])([2H])OCC(=O)N1CCc2c(C(=O)N3CC=C(c4cccc(F)c4C(F)(F)F)CC3)n[nH]c2C1 [Compound 8] |  |  |  |  |  | 70.4 | 19.7 | 6.79 | 204 | 556 | 199 | 515 | 30 |  |  |  | 
7 | [2H]C([2H])([2H])OCC(=O)N1CCc2c(C(=O)N3CC=C(c4ccc(F)c(F)c4C(F)(F)F)CC3)n[nH]c2C1 [Compound 9] | 82 |  |  |  |  | 130 | 10.6 | 17.2 | 80.8 | 1030 | 40 | 1090 | 30 |  |  |  | 
8 | NC(=O)CN1CCc2c(C(=O)N3CC=C(c4ccc(F)c(F)c4C(F)(F)F)CC3)n[nH]c2C1 [Compound 10] | 72 |  |  |  |  | > 180 | < 7.44 | 18.6 | 74.5 | 1200 | 113 | 468 | 30 |  |  |  | 
9 | CNC(=O)CN1CCc2c(C(=O)N3CC=C(c4ccc(F)c(F)c4C(F)(F)F)CC3)n[nH]c2C1 [Compound 11] |  |  |  |  |  | 140 | 9.9 | 11.4 | 121 |  |  |  |  |  |  |  | 
10 | CN(C)C(=O)CN1CCc2c(C(=O)N3CC=C(c4ccc(F)c(F)c4C(F)(F)F)CC3)n[nH]c2C1 [Compound 12] |  |  |  |  |  | 126 | 11 | 4.2 | 330 |  |  |  |  |  |  |  | 
11 | O=C(c1n[nH]c2c1CCNC2)N1CC=C(c2cccc(F)c2C(F)(F)F)CC1 [Compound 13] | 67 |  |  |  |  | > 180 | < 7.44 | 30.2 | 45.8 | 6040 |  | 1200 | 120 |  |  |  | 
12 | O=C(c1n[nH]c2c1CCNC2)N1CC=C(c2ccc(F)c(F)c2C(F)(F)F)CC1 [Compound 14] | 53 |  |  |  |  | > 180 | < 7.44 | 30 | 46.2 |  |  |  |  | 6000 | 452 | 364 | 318
13 | NC(=O)CN1CCc2c(C(=O)N3CC=C(c4cccc(F)c4C(F)(F)F)CC3)n[nH]c2C1 [Compound 15] | 77 |  |  |  |  | > 180 | < 7.44 | 17.4 | 79.9 |  |  |  |  | 319 | 185 | 141 | 30
14 | NC(=O)C(=O)N1CCc2c(C(=O)N3CC=C(c4ccc(F)c(F)c4C(F)(F)F)CC3)n[nH]c2C1 [Compound 16] |  |  |  |  |  | > 180 | < 7.44 | > 180 | < 7.44 |  |  |  |  | 490 | 101 | 235 | 30
15 | O=C(c1n[nH]c2c1COCC2)N1CC=C(c2ccc(F)c(F)c2C(F)(F)F)CC1 [Compound 17] |  | 17800 | 201 | 2860 | 108 | > 180 | < 7.44 | 36.4 | 38.1 |  |  |  |  |  |  |  | 
16 | O=C1NCC[C@@H]1N1CCc2c(C(=O)N3CC=C(c4ccc(F)c(F)c4C(F)(F)F)CC3)n[nH]c2C1 [Compound 18] |  |  |  |  |  | > 180 | < 7.44 | 18.8 | 73.5 |  |  |  |  |  |  |  | 
17 | CC(C(N)=O)C(=O)N1CCc2c(C(=O)N3CC=C(c4ccc(F)c(F)c4C(F)(F)F)CC3)n[nH]c2C1 (stereo not shown) [Compound 19] |  |  |  |  |  | > 180 | < 7.44 | 74.6 | 18.6 | 41.9 | 119 | 22.3 | 50 |  |  |  | 
18 | O=C1NCC[C@@H]1N1CCc2c(C(=O)N3CC=C(c4cccc(F)c4C(F)(F)F)CC3)n[nH]c2C1 [Compound 20] |  |  |  |  |  | 99 | 14 | 13.7 | 101 | 208 | 97.8 | 112 | 30 |  |  |  | 
19 | NC(=O)C(=O)N1CCc2c(C(=O)N3CC=C(c4cccc(F)c4C(F)(F)F)CC3)n[nH]c2C1 [Compound 21] | 14 |  |  |  |  | > 180 | < 7.44 | 136 | 10.2 | 1200 | 152 | 519 | 30 |  |  |  | 
20 | O=C(c1n[nH]c2c1COCC2)N1CC=C(c2cccc(F)c2C(F)(F)F)CC1 [Compound 23] |  |  |  |  |  | 54.3 | 25.5 | 10.7 | 130 |  |  |  |  |  |  |  | 
21 | CC(=O)N1CCc2c(C(=O)N3CCC(c4ccc(F)c(F)c4C(F)(F)F)CC3)n[nH]c2C1 [reference compound, 1-(3-(4-(3,4-difluoro-2-(trifluoromethyl)phenyl)piperidine-1-carbonyl)-4,5-dihydro-1H-pyrazolo[3,4-c]pyridin-6(7H)-yl)ethanone, reference compound] |  |  |  |  |  |  |  |  |  | 8830 | 92.4 | 3230 | 40.2 |  |  |  | 
